The assay relates to immobilized GST-tagged bait protein domains. As to the kind of experiment: ProP-PD phage selections (HD2 P8, sublibraries, HD2 P3, HD1 P8) with NGS and confidence level. Type of assay: binding, human. As to conditions: for HD2_endomembrane confidence: HD2 P8 endomembrane sublibrary.
[1] abbreviates: bait OXSR1___O95747_434_527, HD2 library, confidence level (1-4) of best matching selected peptide.
The mark [2] stands for this setting: bait OXSR1___O95747_434_527, HD2 library, specificity score of best matching selected peptide.
[3] abbreviates: bait OXSR1___O95747_434_527, HD2 library, whether the validated benchmark motif instance was recovered in the ProP-PD selection (TRUE/FALSE).
Where [4] appears, read: HD2 library, bait TNKS_TANK-peptide-bind__O95271_174_649, known motif instance of the benchmarking set found (TRUE) or not found (FALSE) among selected peptides.
Setting [5] is: HD2 library, bait SUMO1_SUMO__P63165_1_101, known motif instance of the benchmarking set found (TRUE) or not found (FALSE) among selected peptides.
Setting [6] is: bait MAP1LC3A_ATG8__Q9H492_2_121, confidence level (4 = High, 2-3 = Medium, 1 = Low).
Setting [7] is: bait CRK_SH3_1_P46108_124_198, library HD2, benchmarking set of validated motif instances, TRUE = motif instance recovered in the ProP-PD selection.
[8] abbreviates: bait MAP1LC3A_ATG8 (Q9H492 2-121), HD2 library, benchmark motif instance recovered in the ProP-PD selection (TRUE/FALSE).
The mark [9] stands for this setting: bait MAP1LC3A_ATG8 (Q9H492 2-121), HD2 library, confidence level (1-4) of best matching peptide.
Where [10] appears, read: bait MAP1LC3A_ATG8 (Q9H492 2-121), HD2 library, specificity score of best matching peptide.

In the case of TTTANKVGRFSVSKTE, the best_confidence under setting [1] came to 2. Besides, the best_specificity under setting [2] was 1. In addition, the motif_found result under setting [3] was “TRUE”. On to TVNNCAQDRESPDGSYTEEQSQ, for which the motif_found entry under setting [4] is listed as “FALSE”.

Consider VDLTHNDSVVIVDERRRPRRN, for which, under setting [5], the motif_found result was “FALSE”. Where the note is “library HD2, bait Keap1_KELCH__Q14145_321_609, best matching peptide”, VDPSTGELQSLQMPES displayed a best_specificity of 1. The best_confidence (library HD2, bait Keap1_KELCH__Q14145_321_609, confidence level of best matching peptide (4 High, 2-3 Medium, 1 Low)) worked out at 3. The motif_found result (library HD2, bait Keap1_KELCH__Q14145_321_609, whether the validated benchmark motif instance was recovered in the ProP-PD selection (TRUE/FALSE)) is given as “TRUE”.

Take VEEEWVIVSDEEIEEA: the HD2_endomembrane confidence under setting [6] was determined as 4. The substance VEVIDLTIESSSDEED returned a best_confidence (bait SUMO1_SUMO__P63165_1_101, HD2 library, confidence level (1-4) of best matching selected peptide) of 4. For the same substance, under “bait SUMO1_SUMO__P63165_1_101, HD2 library, specificity score of best matching selected peptide”, the best_specificity was 1. In addition, the motif_found result (bait SUMO1_SUMO__P63165_1_101, HD2 library, whether the validated benchmark motif instance was recovered in the ProP-PD selection (TRUE/FALSE)) is recorded as “TRUE”. For the setting “bait ANKRA2_Ank__Q9H9E1_142_313, library HD2 P8”, VFPRPVLPSLTVSRVI had an HD2 confidence of 4. Where the note is “bait ANKRA2_Ank__Q9H9E1_142_313, library HD2 P8 nucleocytoplasmic”, this substance registered an HD2_nc confidence of 3. Further, where the note is “bait ANKRA2_Ank__Q9H9E1_142_313, library HD2 P8 nucleocytoplasmic, mean normalised NGS counts”, the HD2_nc count proportions turned out to be 0.003084. In addition, the HD2_nc mean counts (bait ANKRA2_Ank__Q9H9E1_142_313, library HD2 P8 nucleocytoplasmic, mean raw NGS counts, all selections) was 216.6. As to VGDTSRGQVIIISDSDDDDDERILSLEK, under setting [5], the motif_found result is on record as “FALSE”.

Under setting [1], VGRFQVTSSKEPAEPL registered a best_confidence of 4. Under setting [2], this substance yielded a best_specificity of 1. Also, under setting [3], the motif_found entry was “TRUE”.

Turning to VGSQADTNVIDLTGDDKDDL, under setting [5], the motif_found result is on record as “FALSE”. Turning to VIGSADCNVIEIDDTLDDSDED, the motif_found entry under setting [5] is “FALSE”. Regarding VLGDQRRPSLPALHFIKGAGKK, the motif_found result (library HD2, bait ANKRA2_Ank__Q9H9E1_142_313, motif instance NOT in library (in_library_check FALSE, in_library_coverage 0)) is “FALSE”.

Under “bait ANKRA2_Ank__Q9H9E1_142_313, library HD”, VMSLPKLQQVPGLHPQ displayed an HD confidence of 3. The substance also displayed an HD count proportions (bait ANKRA2_Ank__Q9H9E1_142_313, library HD, mean normalised NGS counts) of 0.003008. The HD mean counts (bait ANKRA2_Ank__Q9H9E1_142_313, library HD, mean raw NGS counts, all selections) is 34.0. In the case of VPNVHAAEFVPSFLRG, where the note is “bait PABP-B_PABP__P11940_544_623, HD2 library, confidence level (1-4) of best matching selected peptide”, the best_confidence is 4. The substance further showed a best_specificity (bait PABP-B_PABP__P11940_544_623, HD2 library, specificity score of best matching selected peptide) of 1. In addition, the motif_found result (bait PABP-B_PABP__P11940_544_623, HD2 library, whether the validated benchmark motif instance was recovered in the ProP-PD selection (TRUE/FALSE)) is listed as “TRUE”. Consider VPSPASLWPPPPSPAPSST, for which the motif_found result (library HD2, bait VASP_EVH1__P50552_1_114, validated benchmark motif instance, in_library_check TRUE, TRUE/FALSE = instance recovered in ProP-PD selection) is “FALSE”. Consider VPTLPPKQQFLPSSPG, for which the HD2_nc confidence (bait CRK_SH3_1_P46108_124_198, HD2 P8 nucleocytoplasmic sublibrary, confidence level (4 = High, 2-3 = Medium, 1 = Low)) came out at 4. This substance gave an HD2_nc mean counts (bait CRK_SH3_1_P46108_124_198, HD2 P8 nucleocytoplasmic sublibrary, mean NGS counts over replicate selections) of 1917.0. The substance also had an HD2_nc count proportions (bait CRK_SH3_1_P46108_124_198, HD2 P8 nucleocytoplasmic sublibrary, mean proportion of NGS counts) of 0.01185. With VQPKQDAFANFANFSK, the HD confidence (bait AP2B1_adaptin__P63010_700_937, library HD) came out at 2. Where the note is “bait AP2B1_adaptin__P63010_700_937, library HD, mean normalised NGS counts”, the HD count proportions was 0.0004926. Where the note is “bait AP2B1_adaptin__P63010_700_937, library HD, mean raw NGS counts, all selections”, this substance came in with an HD mean counts of 1.25. For the substance VSGSHCTPPPPYHADP, the best_confidence (library HD2, bait YAP1_WW_1_P46937_169_207, confidence level of best matching selected peptide (4 High, 2-3 Medium, 1 Low)) amounted to 4. In addition, the best_specificity (library HD2, bait YAP1_WW_1_P46937_169_207, specificity score of best matching selected peptide) was found to be 0.99. Besides, the motif_found entry (library HD2, bait YAP1_WW_1_P46937_169_207, validated benchmark motif instance, in_library_check TRUE, TRUE/FALSE = instance recovered in ProP-PD selection) is recorded as “TRUE”. In the case of VSPSTSY, the motif_found entry (library HD2, bait USP7_MATH-TRAF__Q93009_53_206, validated benchmark motif instance, in_library_check TRUE, TRUE/FALSE = instance recovered in ProP-PD selection) is on record as “FALSE”. Turning to VSSAAPSPRGCADGRDADPTEE, under setting [4], the motif_found entry is “FALSE”. Regarding VSVDSIPLEWDHTGDVGGSSSHE, under “library HD2, bait KLC1_TPR__Q07866_203_497, whether the validated benchmark motif instance was recovered in the ProP-PD selection (TRUE/FALSE)”, the motif_found entry is given as “FALSE”.

Turning to VVDNSPPPALPPKKRQSAPS [RAPGEF1], the motif_found result under setting [7] is “FALSE”. Turning to VVHSAGRRFIVSPVPESRL, the motif_found entry under setting [3] is recorded as “FALSE”. Substance WADFSSTWPTSTNEKP came in with an HD2_endomembrane confidence (bait AP2B1_adaptin__P63010_700_937, confidence level (4 = High, 2-3 = Medium, 1 = Low)) of 4. Under “bait AP2B1_adaptin__P63010_700_937, HD1 P8 library, confidence level (4 = High, 2-3 = Medium, 1 = Low)”, WAKFSNDNIKHSQNMR gave an HD confidence of 4. Besides, the HD mean counts (bait AP2B1_adaptin__P63010_700_937, HD1 P8 library, mean NGS counts over replicate selections) is reported as 1.5. This substance returned an HD count proportions (bait AP2B1_adaptin__P63010_700_937, HD1 P8 library, mean proportion of NGS counts) of 0.0005262. Take WEALNDSVKTSMHWVV: the HD2-1mM_CaCl confidence (bait CALM1 EF-hand (P0DP23, 2-149), HD2 library selection with 1mM_CaCl, confidence level (4 = High, 2 or 3 = Medium, 1 = Low)) worked out at 2. For the same substance, the HD2 confidence (bait CALM1 EF-hand (P0DP23, 2-149), HD2 library selection, confidence level (4 = High, 2 or 3 = Medium, 1 = Low)) amounted to 3. Substance WEMVPRHSSWGDVGVG showed an HD2_endomembrane confidence under setting [6] of 4. For WNERQPAPALPPKPPKPTTV [PIK3R1], the motif_found result under setting [7] is “TRUE”. For the substance WQPFPDDHSACLRPGS, the HD2 confidence (bait AP2B1_adaptin__P63010_700_937, HD2 P8 selection, non primary paralogue peptide match, confidence level -4 to 4: 4 = High, 3 or 2 = Medium, 1 = Low, 0 = Filtered/Noise) came out at 3. WRVLGLCLLSVGVWGQ came in with an HD2_cytoplasm confidence (bait CALM1_EF-hand__P0DP23_2_149, HD2 P8 cytoplasm sublibrary, confidence level (4 = High, 2-3 = Medium, 1 = Low)) of 3. Turning to WTHLSSKEVDPSTGEL, the motif_found result under setting [8] is reported as “TRUE” and the motif_found result (bait MAP1LC3B_ATG8 (Q9GZQ8 2-119), HD2 library, benchmark motif instance recovered in the ProP-PD selection (TRUE/FALSE)) is “TRUE”. Also, the best_confidence under setting [9] is recorded as 4 and the best_confidence (bait MAP1LC3B_ATG8 (Q9GZQ8 2-119), HD2 library, confidence level (1-4) of best matching peptide) is 3. Also, the best_specificity was 1 under setting [10] and 1 (bait MAP1LC3B_ATG8 (Q9GZQ8 2-119), HD2 library, specificity score of best matching peptide). Under setting [6], WTMVDENFSTLSLTQS showed an HD2_endomembrane confidence of 4. In the case of WVELPMNSSNGNDNGN, the motif_found result under setting [8] is recorded as “TRUE”. This substance also returned a best_confidence under setting [9] of 2. In addition, the best_specificity under setting [10] worked out at 1. As to YAKKVGYTPDWIFLLRNVMRI [CLTC 511-517], the motif_found entry is given as “FALSE” (HD2 library, bait MAP1LC3A_ATG8__Q9H492_2_121, benchmark motif instance, in_library_check FALSE, in_library_coverage 0) and “FALSE” (HD2 library, bait MAP1LC3B_ATG8__Q9GZQ8_2_119, benchmark motif instance, in_library_check FALSE, in_library_coverage 0). In the case of YDREFLLDFQFMPACI, the best_specificity (library HD2, bait EIF4E_eIF4E__P06730_1_217, best matching peptide) came out at 1. For the same substance, the best_confidence (library HD2, bait EIF4E_eIF4E__P06730_1_217, confidence level of best matching peptide (4 High, 2-3 Medium, 1 Low)) worked out at 2. Also, the motif_found result (library HD2, bait EIF4E_eIF4E__P06730_1_217, whether the validated benchmark motif instance was recovered in the ProP-PD selection (TRUE/FALSE)) was “TRUE”. In the case of “YRLARQRIIQFQARCRAYLVRKAFRHRLWAV [MYO7A 817-833]”, for the setting “HD2 library, bait CALM1_EF-hand__P0DP23_2_149, benchmark motif instance, in_library_check FALSE, in_library_coverage 0”, the motif_found entry was “FALSE”.

Take YSFFSPSPARKRHAPSPEPAV: for the setting “bait KPNA4_Arm (O00629 68-487), HD2 library, benchmark motif instance recovered in the ProP-PD selection (TRUE/FALSE)”, the motif_found entry is listed as “FALSE”. For the substance YTSPSLPNISLGLQAT, the best_specificity (bait ANKRA2_Ank__Q9H9E1_142_313, library HD2, best matching peptide) is on record as 1. The best_confidence (bait ANKRA2_Ank__Q9H9E1_142_313, library HD2, confidence level of best matching peptide (4 = High, 2 or 3 = Medium, 1 = Low)) is reported as 4.
